# Tests used:
# [1] = Antioxidant activity assessed as superoxide dismutase-like activity by SOD-WST assay; assay type: functional
# [2] = Antioxidant activity assessed as trolox equivalent of […]-induced radical scavenging activity by ORAC fluorescence assay; assay type: functional
Structure (SMILES),IC50 [1] [µg/mL],Activity [2] [µmolequiv/g]
COc1c2cc(c(O)c1OC)CCCCC(=O)CCc1ccc(O)c-2c1 [MYRICANONE],> 1000,–
COc1c2cc(c(O[C@@H]3O[C@H](COC(=O)c4cc(O)c(O)c(O)c4)[C@@H](O)[C@H](O)[C@H]3O)c1OC)CCCC[C@@H](O)CCc1ccc(O)c-2c1,90.5,–
COc1c2cc(c(O)c1OC)CCCC[C@@H](O)CCc1ccc(O)c-2c1,> 100,–
COc1cc2cc(c1O)-c1cc(ccc1O)CC[C@@H](OS(=O)(=O)O)CCCC2,> 1000,9620
O=C(O[C@@H]1Cc2c(O)cc(O)cc2O[C@@H]1c1cc(O)c(O)c(O)c1)c1cc(O)c(O)c(O)c1 [EPIGALOCATECHIN GALLATE],26.1,–
COc1c2cc(c(O[C@@H]3O[C@H](COC(=O)c4cc(O)c(O)c(O)c4)[C@@H](O)[C@H](O)[C@H]3O)c1OC)CCCC[C@H](O)CCc1ccc(O)c-2c1,139.6,–
COc1c2cc(c(O)c1OC)CCCC[C@@H](OS(=O)(=O)O)CCc1ccc(O)c-2c1,786.9,8680
O=c1c(O)c(-c2cc(O)c(O)c(O)c2)oc2cc(O)cc(O)c12 [MYRICETIN],139.6,16100
O=C(O)c1cc(O)c(O)c(O)c1 [GALLIC ACID],6.3,–
C[C@H]1O[C@@H](Oc2c(-c3cc(O)c(O)c(O)c3)oc3cc(O)cc(O)c3c2=O)[C@@H](O)[C@@H](O)[C@@H]1O [MYRICITRIN],127.5,13200
C[C@@H]1O[C@@H](Oc2c(-c3cc(O)c(O)c(O)c3)oc3cc(O)cc(O)c3c2=O)[C@H](OC(=O)c2cc(O)c(O)c(O)c2)[C@H](O)[C@H]1O,38.6,–
COc1c2cc(c(O[C@@H]3O[C@H](COC(=O)c4cc(O)c(O)c(O)c4)[C@@H](O)[C@H](O)[C@H]3O)c1OC)CCCCC(=O)CCc1ccc(O)c-2c1,106.8,–
COC1=C(OC)C(=O)C2=C(CCCCC(O)CCc3ccc(O)c2c3)C1=O (stereo not drawn) [ACTINIDIONE],7.9,–
O=C(O[C@@H]1[C@@H](c2c(O)cc(O)c3c2O[C@H](c2cc(O)c(O)c(O)c2)[C@H](OC(=O)c2cc(O)c(O)c(O)c2)C3)c2c(O)cc(O)cc2O[C@@H]1c1cc(O)c(O)c(O)c1)c1cc(O)c(O)c(O)c1,19.2,–
